Measured values published in the supplement of paper PMC13380429.

Experiments:
Caco-2 [1] = experiment: drug sensitivity score (DSS) for viability; higher = more toxic; extreme values may be limits of the assay; conditions: 72 h
HepG2 [2] = experiment: as above; conditions: 72 h
Calu-3 [3] = experiment: as above; conditions: 72 h
Vero E6 [4] = experiment: as above; conditions: 72 h
U2OS [5] = experiment: as above; conditions: 72 h
A549-ACE2 = experiment: drug-induced phospholipidosis relative to tamoxifen; higher = more phospholipidosis
Caco-2 [6] = experiment: cell viability relative to DMSO; higher = less toxic; conditions: 72 h
HepG2 [7] = experiment: as above; conditions: 72 h
Calu-3 [8] = experiment: as above; conditions: 72 h
Vero E6 [9] = experiment: as above; conditions: 72 h
U2OS [10] = experiment: as above; conditions: 72 h
[11] = test system: A549-ACE2 infected with SARS-CoV-2; experiment: cell count relative to DMSO; higher = less toxic; conditions: 24 h
[12] = test system: A549-ACE2 infected with SARS-CoV-2; experiment: morphology score (similarity to uninfected cells); higher = more like uninfected cells; conditions: 24 h
[13] = test system: A549-ACE2 infected with SARS-CoV-2; experiment: SARS-CoV-2 infection rate relative to DMSO; higher = more infection; conditions: 24 h
Caco-2 [14] = experiment: relative viability EC50 (midpoint between 100% and the lowest measured viability); higher = less toxic; conditions: 72 h
HepG2 [15] = experiment: as above; conditions: 72 h
Calu-3 [16] = experiment: as above; conditions: 72 h
Vero E6 [17] = experiment: as above; conditions: 72 h
U2OS [18] = experiment: as above; conditions: 72 h

CN(Cc1ccc(C(C)(C)C)cc1)Cc1cccc2ccccc12 [butenafine]
Conditions	drug sensitivity score	relative viability EC50 [nM]
Caco-2 [1]	0	–
Caco-2 [14]	–	> 10000
Calu-3 [3]	0	–
Calu-3 [16]	–	> 10000
HepG2 [2]	0	–
HepG2 [15]	–	> 10000
U2OS [5]	0	–
U2OS [18]	–	> 10000
Vero E6 [4]	0	–
Vero E6 [17]	–	> 10000

drug-induced phospholipidosis [%], A549-ACE2
Conditions	0.3 µM	0.833333 µM	3.33333 µM	6.66667 µM	10 µM	30 µM
24 h	1.71	-2.5	2.21	-2.25	2.84	7.06
48 h	1.14	-3.77	-1.99	-1.09	3.04	15.1
72 h	2.18	-4.26	-1.97	-2.04	0.626	14.1

Conditions	SARS-CoV-2 infection rate, [13] [%]	cell count, [11] [%]	cell viability, Caco-2 [6] [%]	cell viability, Calu-3 [8] [%]	cell viability, HepG2 [7] [%]	cell viability, U2OS [10] [%]	cell viability, Vero E6 [9] [%]	morphology score, [12]
1 nM	–	–	95.3	100	106	94.6	92.8	–
10 nM	–	–	101	102	94.2	98	102	–
100 nM	–	–	92.8	98	103	96.9	95.5	–
0.3 µM	100	101	–	–	–	–	–	0.14
1000 nM	–	–	92.5	94.5	102	96.3	102	–
3 µM	105	83	–	–	–	–	–	-0.05
10000 nM	–	–	93.6	98	105	96.1	97.4	–
10 µM	77	107	–	–	–	–	–	0.58
30 µM	39	110	–	–	–	–	–	0.79

COC(=O)C[C@](O)(CCCC(C)(C)O)C(=O)O[C@@H]1C(OC)=C[C@]23CCCN2CCc2cc4c(cc2[C@H]13)OCO4 [homoharringtonine]
Conditions	drug sensitivity score	relative viability EC50 [nM]
Caco-2 [1]	18.6	–
Caco-2 [14]	–	99
Calu-3 [3]	18.5	–
Calu-3 [16]	–	89.7
HepG2 [2]	27	–
HepG2 [15]	–	49.7
U2OS [5]	26.8	–
U2OS [18]	–	61.6
Vero E6 [4]	18.2	–
Vero E6 [17]	–	273

Conditions	drug-induced phospholipidosis [%]
A549-ACE2, 0.3 µM, 24 h	-2.95

Conditions	SARS-CoV-2 infection rate, [13] [%]	cell count, [11] [%]	cell viability, Caco-2 [6] [%]	cell viability, Calu-3 [8] [%]	cell viability, HepG2 [7] [%]	cell viability, U2OS [10] [%]	cell viability, Vero E6 [9] [%]	morphology score, [12]
1 nM	–	–	99.3	93.4	98.4	104	92.4	–
10 nM	–	–	102	91.1	89.1	101	103	–
100 nM	–	–	61.8	60.1	29.4	23	82.1	–
0.3 µM	12	68	–	–	–	–	–	0.32
1000 nM	–	–	24.7	27.3	6	6.6	12.8	–
3 µM	16	49	–	–	–	–	–	0.26
10000 nM	–	–	27.9	22	1	0.3	0.5	–
10 µM	19	42	–	–	–	–	–	0.3
30 µM	15	30	–	–	–	–	–	0.33

Nc1nccc(Oc2ccc(NC(=O)c3c[nH]cc(-c4ccc(F)cc4)c3=O)cc2F)c1Cl [metatinib]
Conditions	drug sensitivity score	relative viability EC50 [nM]
Caco-2 [1]	0.4	–
Caco-2 [14]	–	> 10000
Calu-3 [3]	0	–
Calu-3 [16]	–	> 10000
HepG2 [2]	5.7	–
HepG2 [15]	–	1610
U2OS [5]	0	–
U2OS [18]	–	> 10000

drug-induced phospholipidosis [%], A549-ACE2
Conditions	0.3 µM	0.833333 µM	3.33333 µM	6.66667 µM	10 µM	30 µM
24 h	2.65	1.25	4.8	18.8	23.4	32.3
48 h	4.96	-2.22	-0.29	7.93	12.6	20.2
72 h	2.59	-0.924	2.59	8.07	10.8	22.5

Conditions	SARS-CoV-2 infection rate, [13] [%]	cell count, [11] [%]	cell viability, Caco-2 [6] [%]	cell viability, Calu-3 [8] [%]	cell viability, HepG2 [7] [%]	cell viability, U2OS [10] [%]	morphology score, [12]
1 nM	–	–	100	91.4	104	96.2	–
10 nM	–	–	104	96.5	106	102	–
100 nM	–	–	92.6	95.5	101	100	–
0.3 µM	101	95	–	–	–	–	-0.24
1000 nM	–	–	104	95.3	85.6	99.2	–
3 µM	91	102	–	–	–	–	-0.08
10000 nM	–	–	80	96.3	37.7	94.9	–
10 µM	97	106	–	–	–	–	0.16
30 µM	60	60	–	–	–	–	0.34

COc1c(C)c2c(c(O)c1C/C=C(\C)CCC(=O)OCCN1CCOCC1)C(=O)OC2 [mycophenolate-mofetil]
Conditions	drug sensitivity score	relative viability EC50 [nM]
Caco-2 [1]	5.6	–
Calu-3 [3]	4.2	–
HepG2 [2]	8.6	–
HepG2 [15]	–	938
U2OS [5]	7.2	–
U2OS [18]	–	1440
Vero E6 [4]	7.3	–
Vero E6 [17]	–	1250

drug-induced phospholipidosis [%], A549-ACE2
Conditions	0.3 µM	0.833333 µM	3.33333 µM	6.66667 µM	10 µM	30 µM
24 h	-1.99	-10.6	-14.8	-15.8	-12.1	-11.3
48 h	0.05	-8.58	–	–	–	–
72 h	1.31	-1.93	–	–	–	–

Conditions	SARS-CoV-2 infection rate, [13] [%]	cell count, [11] [%]	cell viability, Caco-2 [6] [%]	cell viability, Calu-3 [8] [%]	cell viability, HepG2 [7] [%]	cell viability, U2OS [10] [%]	cell viability, Vero E6 [9] [%]	morphology score, [12]
1 nM	–	–	94.2	89.2	103	96.5	99	–
10 nM	–	–	101	102	101	97.9	98.4	–
100 nM	–	–	106	94.4	112	87.8	99.1	–
0.3 µM	97	102	–	–	–	–	–	0.22
1000 nM	–	–	76	85.1	61.6	73.5	75.1	–
3 µM	78	80	–	–	–	–	–	0.12
10000 nM	–	–	51.3	53.1	29.2	22.8	31.3	–
10 µM	81	94	–	–	–	–	–	0.22
30 µM	65	92	–	–	–	–	–	0.37

[O-][n+]1ccccc1[S-].[O-][n+]1ccccc1[S-].[Zn+2] [pyrithione-zinc]
Conditions	drug sensitivity score	relative viability EC50 [nM]
Caco-2 [1]	19.5	–
Caco-2 [14]	–	137
Calu-3 [3]	12	–
Calu-3 [16]	–	527
HepG2 [2]	14.1	–
HepG2 [15]	–	640
U2OS [5]	16.4	–
U2OS [18]	–	406
Vero E6 [4]	12.8	–
Vero E6 [17]	–	748

drug-induced phospholipidosis [%], A549-ACE2
Conditions	24 h	48 h	72 h
0.3 µM	-3.98	-0.06	2.15
0.833333 µM	2.2	–	–

Conditions	SARS-CoV-2 infection rate, [13] [%]	cell count, [11] [%]	cell viability, Caco-2 [6] [%]	cell viability, Calu-3 [8] [%]	cell viability, HepG2 [7] [%]	cell viability, U2OS [10] [%]	cell viability, Vero E6 [9] [%]	morphology score, [12]
1 nM	–	–	91.4	102	97	102	98.8	–
10 nM	–	–	94.5	94.8	111	95.1	93.6	–
100 nM	–	–	69.8	94.6	102	97	94.4	–
0.3 µM	95	99	–	–	–	–	–	0.13
1000 nM	–	–	13.4	40.6	24.6	10.8	40	–
3 µM	76	4	–	–	–	–	–	0.14
10000 nM	–	–	22.9	18.8	-0.1	1.3	0.1	–
